Reference: patent US20220202818A1, “COMBINATION WITH CHECKPOINT INHIBITORS TO TREAT CANCER” (The Regents of the University of Michigan, priority 2019, published 2022)

Experiments:
[1] = tested on: KPC pancreatic tumors; experiment: In vivo efficacy of MOL-211 alone and with PD-1 antibody in mice bearing KPC pancreatic tumors
Experimental: In vivo studies were conducted to evaluate the efficacy of MOL-211 alone and in combination with PD-1 antibody in mice bearing KPC pancreatic tumors (FIG. 1A-FIG. 1E). Mice were treated daily with MOL-211 (50 mg/kg) administered by oral gavage; anti-PD-1 antibody was administered twice a week via IP injection. Mice were analyzed subsequent to tumor implantation for over 90 days using a vehicle control; MOL-211 at 50 mg/kg; anti-PD-1 antibody at 10 mg/kg; and a combination of MOL-211 and anti-PD-1.
A partial responder (PR) is defined as a tumor that regressed to 50% of the baseline tumor volume. A complete responder (CR) is defined as a tumor below the limits of palpation (40 mg). The ΔT/ΔC ratio is the ratio of tumor volume change (treated/control) from first day of treatment to last day of treatment. Median ILS represents median increase in lifespan.

[2] = tested on: SCC7 head and neck tumors; experiment: In vivo study in C3H mice bearing SCC7 head and neck tumors
Experimental: (§1) Female 6- to 7-week old C3H mice or BALB/c mice were implanted subcutaneously with 1×10^6 cultured SCC7 cells or CT-26 (murine colorectal carcinoma) cells into the region of the right axilla. Female 6- to 7-week old BALB/c mice were implanted with 2×10^6 cultured EMT-6 (murine mammary carcinoma) cells subcutaneously into the mammary fat pad. Mice were randomized into treatment groups and treatments initiated when tumors reached 60 to 100 mg. MOL-211 was administered daily by oral gavage at a dose of 50 mg/kg for the duration of the study and was prepared as a 5 mg/mL solution in 1:2 PG:1% Tween80/Na3PO4, based upon individual animal body weight (0.2 mL/20 g). PD-1 antibody was purchased from BioXcell (Lebanon, N.H.) and administered intraperitoneally (IP) at a dose of 10 mg/kg every third day. Subcutaneous tumor volume and body weights were measured three times a week. Tumor volumes were calculated by measuring two perpendicular diameters with calipers and using the formula: tumor volume=(length×width^2)/2. Individual animals were dosed until progression, defined as the time at which tumor burden reached 1000 mg. […] Animal body weight was monitored three times weekly (FIG. 4D, FIG. 5D, FIG. 6C).

[3] = tested on: CT-26 (murine colorectal carcinoma) tumors; experiment: In vivo study in BALB/c mice bearing CT-26 (murine colorectal carcinoma) tumors; settings: FIG. 5A
Experimental: as §1

[4] = tested on: EMT-6 (murine mammary carcinoma) tumors; experiment: In vivo study in female BALB/c mice bearing EMT-6 (murine mammary carcinoma) tumors; settings: EMT-6 tumor-bearing mice; FIG. 6B
Experimental: as §1

[5] = tested on: PD-L1; experiment: Western blot of PD-L1 protein in KPC-2 cells treated in vitro; format: cell-based; settings: KPC-2 cells in culture; 10 micromolar; 24 and 48 hours; compared to DMSO
Experimental: KPC-2 cells were also grown in culture and treated for either 24 or 48 hours with DMSO or MOL-211 at a final concentration of 10 micromolar. Cells were harvested and manually homogenized in lysis buffer [25 mmol/L Tris-HCl (pH7.6), 150 mmol/L NaCl, 1% Nonidet P-40, 10% glycerol, 1 mmol/L dithiothreitol, and protease and phosphatase inhibitors], rocked for 30 minutes at 4° C., and centrifuged at 14,000 rpm for 20 min at 4° C. Protein concentration was determined by BioRad Protein Assays and lysates were subsequently subjected to SDS gel electrophoresis. Proteins were transferred to polyvinylidene fluoride membranes and probed with a primary antibody recognizing PD-L1 (Abcam, Cambridge, UK) and beta-actin. After incubation with anti-rabbit HRP-linked secondary antibody (Jackson ImmunoResearch Laboratories, West Grove, Pa.), proteins were detected using chemiluminescence (GE Healthcare, Chicago, Ill.).

For `CS(=O)(=O)Nc1cc(-c2ccc3ncnc(Nc4ccc(F)c(Cl)c4)c3c2)cnc1Cl` [MOL-211, N-(2-chloro-5-(4-((3-chloro-4-fluorophenyl)amino)quinazolin-6-yl)pyridin-3-yl)methanesulfonamide], the “Median ILS (median increase in lifespan)” value [1] was 82%, the “ΔT/ΔC (Day 19)” value ([1]; ratio of tumor volume change (treated/control) from first to last day of treatment, MOL-211 50 mg/kg daily oral gavage, PD-1 antibody 10 mg/kg/kg IP) was 21% and the “CRs (complete responders)” value ([1]; tumor below the limits of palpation (40 mg)) was 0%. For the same compound, the “PRs (partial responders)” value ([1]; tumor regressed to 50% of baseline tumor volume) was 0, the “calculated increase in lifespan (ILS)” value ([2]; C3H mice bearing SCC7 tumors, MOL-211 50 mg/kg, PD-1 antibody 10 mg/kg, FIG. 4A) was 206% and the “reduction in mean tumor volumes” value ([2]; mice bearing SCC7 tumors, compared with PD-1 antibody monotherapy, FIG. 4B) was “superior to PD-1 antibody monotherapy”. For the same compound, the “calculated increase in lifespan (ILS)” value ([3]; BALB/c mice bearing CT-26 tumors, MOL-211 50 mg/kg, PD-1 antibody 10 mg/kg) was 22%, the increase in survival ([3]; mice bearing CT-26 tumors) was “Neither single agent nor combination treatment with MOL-211 and PD-1 antibody resulted in a therapeutically meaningful increase in survival” and the “reduction in tumor volume compared to vehicle control” value [4] was “did not result in a statistically significant reduction in tumor volume”. For the same compound, the “PD-L1 protein levels (western blot)” value [5] was “reduced PD-L1 protein levels”.
